Activity calls are given as the source filed them. No cut-off for these calls is given here. Where a SMILES comes first, the peptide text is derived from it. The star is where a group is joined. 6FAM = O=C1OC2(c3ccc(O)cc3Oc3cc(O)ccc32)c2cc(C(=O)*)ccc21; Stearoyl = CCCCCCCCCCCCCCCCCC(=O)*
Columns and labels:
BT-474 = assay: Antiproliferative activity against human BT474 cells after 72 hrs by CellTiter-Glo assay; format: functional, cell-based; settings: BT-474, 72 h
Calu-3 = assay: Antiproliferative activity against human Calu3 cells after 72 hrs by CellTiter-Glo assay; format: functional, cell-based; settings: Calu-3, 72 h
A549 = assay: Antiproliferative activity against human A549 cells after 72 hrs by CellTiter-Glo assay; format: functional, cell-based; settings: A549, 72 h
MCF7 = assay: Antiproliferative activity against human MCF7 cells after 72 hrs by CellTiter-Glo assay; format: functional, cell-based; settings: MCF7, 72 h
MCF-10A = assay: Antiproliferative activity against human MCF10A cells after 72 hrs by CellTiter-Glo assay; format: cell-based
[1] = biological target: Receptor tyrosine-protein kinase erbB-2 (Homo sapiens) (UniProt P04626); assay: Inhibition of FITC-aminocaproic acid-Arg-(S)Anapa-Phe-OH binding to HER2 domain-4 in human BT474 cells after 45 mins by fluorescence assay; format: cell-based
[2] = biological target: Receptor tyrosine-protein kinase erbB-2 (Homo sapiens) (UniProt P04626); assay: Inhibition of Stearic acid-Gly-Arg-(S)Anapa-Phe-Asp-Gly-Gly-Gly-Lys-OH (FAM Lys side chain) binding to HER2 domain-4 in human BT474 cells after 45 mins by fluorescence assay; format: cell-based
[3] = biological target: Receptor tyrosine-protein kinase erbB-2 (Homo sapiens) (UniProt P04626); assay: Inhibition of Stearic acid-Gly-Arg-(S)Anapa-Phe-Asp-Gly-Gly-Gly-Lys-OH (FAM Lys side chain) binding to HER2 domain-4 in human BT474 cells at 0.5 to 100 uM after 1 hr by DAPI staining based microscopic method; format: cell-based
[4] = biological target: Receptor tyrosine-protein kinase erbB-2 (Homo sapiens) (UniProt P04626); assay: Binding affinity to HER2 extracellular domain (unknown origin) by SPR analysis
[5] = biological target: Receptor tyrosine-protein kinase erbB-2 (Homo sapiens) (UniProt P04626); assay: Binding affinity to HER2 in human BT474 cells assessed as inhibition of HER2:HER3 heterodimerization at 1 to 5 uM after 48 hrs by DAPI staining based proximity ligation assay; format: cell-based
[6] = Stability in human serum after 24 hrs by HPLC analysis; format: ADME, cell-free
[7] = Half life in human serum by HPLC analysis; format: ADME, cell-free
[8] = Stability in human serum after 24 hrs by MALDI-TOF-MS analysis; format: ADME, cell-free
[9] = biological target: Receptor tyrosine-protein kinase erbB-2 (Homo sapiens) (UniProt P04626); assay: Binding affinity to HER2 in human BT474 cells at 0.5 uM after 30 mins by DAPI staining based microscopic method; format: cell-based
[10] = biological target: Receptor tyrosine-protein kinase erbB-2 (Homo sapiens) (UniProt P04626); assay: Binding affinity to HER2 in human BT474 cells assessed as receptor internalization at 0.5 uM after 2 hrs by DAPI/Lysotracker staining based microscopic method; format: cell-based
[11] = biological target: Receptor tyrosine-protein kinase erbB-2 (Homo sapiens) (UniProt P04626); assay: Inhibition of FITC-aminocaproic acid-Arg-(S)Anapa-Phe-OH binding to HER2 domain-4 in human BT474 cells at 0.5 to 200 uM after 45 mins by fluorescence assay; format: cell-based
[12] = biological target: Receptor tyrosine-protein kinase erbB-2 (Homo sapiens) (UniProt P04626); assay: Binding affinity to HER2 extracellular domain (unknown origin) at 25 to 100 uM by SPR analysis

Sequence of Receptor tyrosine-protein kinase erbB-2 (Homo sapiens) (P04626 whole entry, the tested form may be a part): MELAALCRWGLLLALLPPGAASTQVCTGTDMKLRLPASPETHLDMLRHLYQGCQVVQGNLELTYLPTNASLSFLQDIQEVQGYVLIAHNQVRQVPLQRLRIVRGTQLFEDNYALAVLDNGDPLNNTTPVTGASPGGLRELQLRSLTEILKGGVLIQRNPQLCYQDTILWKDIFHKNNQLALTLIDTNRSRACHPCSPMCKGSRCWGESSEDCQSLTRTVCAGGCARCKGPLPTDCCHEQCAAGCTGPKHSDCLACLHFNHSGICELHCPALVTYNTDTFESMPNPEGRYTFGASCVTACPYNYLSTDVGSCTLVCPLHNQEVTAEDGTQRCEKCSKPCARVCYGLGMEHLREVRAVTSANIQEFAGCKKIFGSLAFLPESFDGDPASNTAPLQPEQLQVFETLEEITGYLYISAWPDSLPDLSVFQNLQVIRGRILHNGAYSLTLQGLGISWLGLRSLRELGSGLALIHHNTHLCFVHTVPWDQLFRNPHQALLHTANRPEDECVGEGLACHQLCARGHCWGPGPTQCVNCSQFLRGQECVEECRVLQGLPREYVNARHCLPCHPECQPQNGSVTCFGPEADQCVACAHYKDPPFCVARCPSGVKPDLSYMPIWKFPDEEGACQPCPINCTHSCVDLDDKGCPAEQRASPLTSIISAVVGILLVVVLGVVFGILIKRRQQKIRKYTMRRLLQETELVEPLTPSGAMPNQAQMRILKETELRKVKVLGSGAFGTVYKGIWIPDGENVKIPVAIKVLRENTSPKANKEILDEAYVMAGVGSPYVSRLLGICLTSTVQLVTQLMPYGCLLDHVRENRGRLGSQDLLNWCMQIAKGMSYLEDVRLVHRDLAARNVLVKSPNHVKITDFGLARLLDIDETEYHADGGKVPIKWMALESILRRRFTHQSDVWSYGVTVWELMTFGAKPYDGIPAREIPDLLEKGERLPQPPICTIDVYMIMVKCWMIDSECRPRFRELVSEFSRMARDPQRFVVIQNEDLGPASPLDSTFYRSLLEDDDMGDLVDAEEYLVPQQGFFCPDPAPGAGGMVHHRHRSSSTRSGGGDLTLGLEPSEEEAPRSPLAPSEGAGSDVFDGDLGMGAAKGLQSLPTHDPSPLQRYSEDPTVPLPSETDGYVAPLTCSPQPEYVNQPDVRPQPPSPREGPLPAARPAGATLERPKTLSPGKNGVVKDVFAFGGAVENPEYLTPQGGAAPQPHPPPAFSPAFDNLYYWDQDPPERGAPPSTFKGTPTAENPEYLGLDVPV

SMILES | IC50 (BT-474) | IC50 (Calu-3) | IC50 (A549) | IC50 (MCF7) | IC50 (MCF-10A) | other results
CCCCCCCCCCCCCCCCCC(=O)N[C@@H](CCCNC(=N)N)C(=O)N[C@@H](CC(=O)N[C@@H](Cc1ccccc1)C(=O)O)c1cccc2ccccc12 | 1000 nM | 1460 nM | 1170 nM | > 35 µM | > 35 µM | inhibition [1]: Dose-dependent effect; inhibition [2]: Dose-dependent effect; inhibition [3]: Active; Activity [4]: Dose-dependent effect; inhibition [5]: Active; Stability [6]: Stable; half-life [7]: 300 min; Stability [8]: Stable
CCCCCCCCCCCCCCCCCC(=O)NCC(=O)N[C@@H](CCCNC(=N)N)C(=O)N[C@@H](C)C(=O)N[C@@H](C)C(=O)N[C@@H](CC(C)C)C(=O)NCC(=O)NCC(=O)NCC(=O)N[C@@H](CCCCNC(=O)c1ccc2c(c1)C1(OC2=O)c2ccc(O)cc2Oc2cc(O)ccc21)C(=O)O (Stearoyl-GRAALGGGK(6FAM)-OH) | – | – | – | – | – | Activity [9]: inactive; Activity [10]: inactive
CCCCCCCCCCCCCCCC(=O)N[C@@H](CCCNC(=N)N)C(=O)N[C@@H](CC(=O)N[C@@H](Cc1ccccc1)C(=O)O)c1cccc2ccccc12 | 1400 nM | 1560 nM | 1010 nM | > 35 µM | > 35 µM | –
NCCCC[C@H](N)C(=O)Nc1cccc(-c2ccccc2)c1CCC(=O)N[C@@H](Cc1ccccc1)C(=O)O | > 35000 nM | > 35000 nM | > 35000 nM | > 35 µM | – | inhibition [11]: inactive; Activity [12]: inactive

Now from value to molecule, other results behind:

IC50 (BT-474) | IC50 (Calu-3) | IC50 (A549) | IC50 (MCF7) | SMILES | IC50 (MCF-10A) | other results
1400 nM | – | – | – | CCCCCCCCCCCCCCCC(=O)N[C@@H](CCCNC(=N)N)C(=O)N[C@@H](CC(=O)N[C@@H](CCCCN)C(=O)O)c1cccc2ccccc12 | – | –
1200 nM | – | – | – | CCCCCCCCCCCCCCCCCC(=O)N[C@@H](CCCNC(=N)N)C(=O)N[C@@H](CC(=O)N[C@@H](CCCCN)C(=O)O)c1cccc2ccccc12 | – | –
